This note sets out measurements from PMC4979471 (Cell Death Discovery, 2015).

The structures appear in SMILES notation. Like-named read-outs stand apart in the source and are kept apart here.

Common to all, as to assay: Kinase selectivity, P33-radiolabeled assay
Common to all, as to assay type: biochemical
Holding throughout (settings): 10 μM ATP

The target in assay [1] is T1, CLK3 (Homo sapiens, UniProt P49761).
T1 construct: purchased Reaction Biology Corp
The method, boiled down: (§1)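 Percent residual kinase activity versus DMSO is reported. Conditions: compound at 10 μM, ATP at 10 μM, n = 2.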

In assay [2] the target is T2, NLK (Homo sapiens, UniProt Q9UBE8).
T2 construct: purchased Reaction Biology Corp
T2 sequence (Q9UBE8 1-527): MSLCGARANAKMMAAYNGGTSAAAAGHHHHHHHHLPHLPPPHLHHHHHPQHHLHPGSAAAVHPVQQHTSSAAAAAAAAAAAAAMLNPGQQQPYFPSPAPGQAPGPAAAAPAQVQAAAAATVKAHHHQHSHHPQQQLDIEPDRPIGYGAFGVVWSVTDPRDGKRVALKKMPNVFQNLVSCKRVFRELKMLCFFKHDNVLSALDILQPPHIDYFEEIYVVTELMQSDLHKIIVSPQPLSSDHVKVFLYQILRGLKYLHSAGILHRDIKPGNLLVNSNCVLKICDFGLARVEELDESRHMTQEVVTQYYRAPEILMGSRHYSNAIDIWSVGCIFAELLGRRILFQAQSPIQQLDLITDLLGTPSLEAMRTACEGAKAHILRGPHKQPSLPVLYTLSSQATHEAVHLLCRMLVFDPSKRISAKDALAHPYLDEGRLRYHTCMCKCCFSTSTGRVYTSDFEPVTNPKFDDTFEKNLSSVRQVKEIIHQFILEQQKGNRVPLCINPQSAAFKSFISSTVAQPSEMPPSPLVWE
The procedure, abridged: as §1

Assay [3] addresses T3, AKT2 (Homo sapiens, UniProt P31751).
T3 construct: purchased Reaction Biology Corp
The procedure, abridged:
as §1

In assay [4] the target is T4, MEKK2 (Homo sapiens, UniProt Q9Y2U5).
T4 construct: purchased Reaction Biology Corp
T4 sequence (Q9Y2U5 1-619): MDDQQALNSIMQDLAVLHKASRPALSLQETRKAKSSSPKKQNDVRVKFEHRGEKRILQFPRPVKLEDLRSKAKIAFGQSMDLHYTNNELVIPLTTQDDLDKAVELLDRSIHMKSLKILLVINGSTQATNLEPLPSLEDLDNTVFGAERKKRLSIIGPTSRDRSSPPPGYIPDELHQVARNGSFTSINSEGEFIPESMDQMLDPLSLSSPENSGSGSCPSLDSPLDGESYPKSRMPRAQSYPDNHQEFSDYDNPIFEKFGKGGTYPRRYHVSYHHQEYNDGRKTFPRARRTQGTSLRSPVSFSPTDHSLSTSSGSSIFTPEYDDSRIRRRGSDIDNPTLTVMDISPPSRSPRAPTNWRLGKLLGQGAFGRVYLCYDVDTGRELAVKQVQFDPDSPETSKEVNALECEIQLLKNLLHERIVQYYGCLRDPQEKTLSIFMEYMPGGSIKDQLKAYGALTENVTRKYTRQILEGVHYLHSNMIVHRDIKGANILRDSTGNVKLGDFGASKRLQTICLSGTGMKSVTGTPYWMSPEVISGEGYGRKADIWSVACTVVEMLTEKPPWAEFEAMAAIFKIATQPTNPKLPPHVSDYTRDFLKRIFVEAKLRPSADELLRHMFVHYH
The procedure, abridged:
as §1

Assay [5] deals with T5, BRK (Homo sapiens, UniProt Q13882).
T5 construct: purchased Reaction Biology Corp
T5 sequence (Q13882 whole entry): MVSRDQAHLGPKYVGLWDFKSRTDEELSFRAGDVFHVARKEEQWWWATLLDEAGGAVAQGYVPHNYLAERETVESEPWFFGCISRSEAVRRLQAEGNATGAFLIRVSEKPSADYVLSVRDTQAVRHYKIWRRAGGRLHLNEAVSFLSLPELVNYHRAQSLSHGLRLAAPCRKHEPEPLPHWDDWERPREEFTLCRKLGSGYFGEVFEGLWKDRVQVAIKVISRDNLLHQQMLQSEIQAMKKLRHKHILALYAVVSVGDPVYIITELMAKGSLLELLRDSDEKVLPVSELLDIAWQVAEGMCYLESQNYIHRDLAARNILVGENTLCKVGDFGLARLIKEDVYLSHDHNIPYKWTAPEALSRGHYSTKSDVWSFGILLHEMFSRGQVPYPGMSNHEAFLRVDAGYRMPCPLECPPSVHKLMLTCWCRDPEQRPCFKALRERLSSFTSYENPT
The method, boiled down: as §1

For assay [6], the target named is T6, PKG2/PRKG2 (Homo sapiens, UniProt Q13237).
T6 construct: purchased Reaction Biology Corp
T6 sequence (Q13237 1-762): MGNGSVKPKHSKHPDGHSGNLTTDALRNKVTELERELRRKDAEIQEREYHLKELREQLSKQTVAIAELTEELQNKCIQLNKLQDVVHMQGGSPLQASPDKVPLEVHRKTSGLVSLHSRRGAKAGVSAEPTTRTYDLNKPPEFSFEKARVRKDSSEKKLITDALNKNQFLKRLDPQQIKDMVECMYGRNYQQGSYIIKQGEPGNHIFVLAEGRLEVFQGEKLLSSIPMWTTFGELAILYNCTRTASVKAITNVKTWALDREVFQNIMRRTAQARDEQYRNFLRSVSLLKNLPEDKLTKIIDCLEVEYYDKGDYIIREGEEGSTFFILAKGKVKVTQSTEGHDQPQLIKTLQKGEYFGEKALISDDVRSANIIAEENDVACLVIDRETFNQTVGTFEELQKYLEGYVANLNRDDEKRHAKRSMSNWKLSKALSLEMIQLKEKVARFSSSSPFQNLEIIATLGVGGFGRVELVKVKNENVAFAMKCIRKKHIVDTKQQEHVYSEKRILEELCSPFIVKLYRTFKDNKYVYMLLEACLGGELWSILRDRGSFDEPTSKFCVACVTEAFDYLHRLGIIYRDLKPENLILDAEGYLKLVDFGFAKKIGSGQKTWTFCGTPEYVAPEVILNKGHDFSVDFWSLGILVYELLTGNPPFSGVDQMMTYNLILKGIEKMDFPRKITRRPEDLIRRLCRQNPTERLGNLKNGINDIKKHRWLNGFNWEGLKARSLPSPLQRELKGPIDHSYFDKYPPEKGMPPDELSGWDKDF
The procedure, abridged:
as §1

The mark [7] stands for this setting: read-out: % Enzyme Activity (relative to DMSO controls) AVG.
[8] abbreviates: read-out: % Enzyme Activity (relative to DMSO controls) Data 1.
Where [9] appears, read: read-out: % Enzyme Activity (relative to DMSO controls) Data 2.

T1 sequence (P49761 whole entry): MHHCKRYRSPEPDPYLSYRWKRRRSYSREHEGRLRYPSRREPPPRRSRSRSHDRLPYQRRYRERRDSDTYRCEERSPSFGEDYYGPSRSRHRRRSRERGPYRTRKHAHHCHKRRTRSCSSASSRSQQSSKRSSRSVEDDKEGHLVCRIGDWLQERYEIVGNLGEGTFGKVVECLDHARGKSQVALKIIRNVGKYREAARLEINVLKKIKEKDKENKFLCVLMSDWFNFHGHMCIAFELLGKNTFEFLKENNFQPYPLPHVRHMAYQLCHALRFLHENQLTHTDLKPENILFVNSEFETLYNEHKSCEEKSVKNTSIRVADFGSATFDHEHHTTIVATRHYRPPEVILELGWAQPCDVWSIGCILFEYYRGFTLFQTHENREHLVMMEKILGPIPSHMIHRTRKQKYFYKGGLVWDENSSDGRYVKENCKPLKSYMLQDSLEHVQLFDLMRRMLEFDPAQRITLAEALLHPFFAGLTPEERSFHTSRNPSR
T3 sequence (P31751 whole entry): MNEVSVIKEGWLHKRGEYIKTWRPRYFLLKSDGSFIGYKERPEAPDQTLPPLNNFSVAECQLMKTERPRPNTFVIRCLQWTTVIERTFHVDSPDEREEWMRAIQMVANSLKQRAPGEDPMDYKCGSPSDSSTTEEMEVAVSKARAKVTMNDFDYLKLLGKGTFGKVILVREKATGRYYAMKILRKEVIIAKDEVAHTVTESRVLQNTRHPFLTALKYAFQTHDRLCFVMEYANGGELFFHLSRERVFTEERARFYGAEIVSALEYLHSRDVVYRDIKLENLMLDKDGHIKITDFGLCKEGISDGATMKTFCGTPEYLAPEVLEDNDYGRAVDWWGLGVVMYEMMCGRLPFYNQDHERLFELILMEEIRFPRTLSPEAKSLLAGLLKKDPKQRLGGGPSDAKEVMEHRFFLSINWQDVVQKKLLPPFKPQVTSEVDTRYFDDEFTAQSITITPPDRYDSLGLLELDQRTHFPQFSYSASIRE

Turning to `CC(C)(C)C(=O)N1N=CC[C@H]1c1ccccc1` [GSK′963], the remaining activity at 10 µM is 107% in assay [1] (setting [7]); 109% in assay [1] (setting [8]); 105% in assay [1] (setting [9]); 112% in assay [2] (setting [7]); 111% in assay [2] (setting [8]); 112% in assay [2] (setting [9]). In addition, the remaining activity at 10 µM came to 92.8% in assay [3] (setting [7]); 91.7% in assay [3] (setting [8]); 93.9% in assay [3] (setting [9]); 114% in assay [4] (setting [7]); 114% in assay [4] (setting [8]); 115% in assay [4] (setting [9]). Further, the remaining activity at 10 µM was 93.2% in assay [5] (setting [7]); 96.2% in assay [5] (setting [8]); 90.2% in assay [5] (setting [9]); 105% in assay [6] (setting [7]); 98.2% in assay [6] (setting [8]); 112% in assay [6] (setting [9]).
